Source: PubChem BioAssay AID1963845 (Molecular Pharmacology Branch, DTP, NCI, 2024)
pIC50: −log10 of the molar value.

Test system: 429239-143-T-J1-PDC complex spheroid viability
Assay: Anticancer human tumor 429239-143-T-J1-PDC patient-derived small cell lung carcinoma cell line growth inhibition [POLQ]
Details: for pIC50: curve of first compound; for viability, T/C: stronger effect = lower value
Outline: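 Complex spheroid viability model combining PDC tumour cells with endothelial (HUVEC) and MSC stromal cells. Novobiocin, ART-558 or RP6685 were tested singly and in combination with standard and investigational anticancer drugs. Each was titrated in half-log steps from near clinical Cmax, or from 10 microM where Cmax was unknown.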
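Also: luminescence signal used as surrogate measure of viable cells; spheroids exposed to compounds for seven days before readout.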
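For viability, T/C in this document: 100% = DMSO vehicle control viability as luminescence relative to vehicle.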

In the case of CC1COCCN1c1cc(C2(O)CC3CCC(C2)O3)c2cnn(-c3ccn[nH]3)c2n1 (configuration not stated) + Nc1ccc(C#CCN(C(=O)Cc2ncc(C(F)(F)F)cc2C(F)(F)F)c2ccc(F)cc2)nn1, the pIC50 (second compound 0.0316 µM) was 6.56, the pIC50 (second compound 0.1 µM) was 6.60 and the pIC50 (second compound 0.316 µM) was 6.57. The pIC50 (second compound 1 µM) was 6.58, the pIC50 (second compound 3.16 µM) was 6.63 and the pIC50 (second compound 10 µM) was 6.73. For the same molecule, the viability, T/C (second compound 0.0316 µM, first compound 0.0316 µM) was 84.1%, the viability, T/C (second compound 0.0316 µM, first compound 0.1 µM) was 72% and the viability, T/C (second compound 0.0316 µM, first compound 0.316 µM) was 48.2%. It also gave a viability, T/C (second compound 0.0316 µM, first compound 1 µM) of 7.65%, a viability, T/C (second compound 0.0316 µM, first compound 3.16 µM) of 3.72% and a viability, T/C (second compound 0.0316 µM, first compound 10 µM) of 2.1%. It also gave a viability, T/C (second compound 0.1 µM, first compound 0.0316 µM) of 83.8%, a viability, T/C (second compound 0.1 µM, first compound 0.1 µM) of 70.5% and a viability, T/C (second compound 0.1 µM, first compound 0.316 µM) of 46.3%. It also gave a viability, T/C (second compound 0.1 µM, first compound 1 µM) of 7.55%, a viability, T/C (second compound 0.1 µM, first compound 3.16 µM) of 3.33% and a viability, T/C (second compound 0.1 µM, first compound 10 µM) of 2.36%. It also gave a viability, T/C (second compound 0.316 µM, first compound 0.0316 µM) of 83.9%, a viability, T/C (second compound 0.316 µM, first compound 0.1 µM) of 71.3% and a viability, T/C (second compound 0.316 µM, first compound 0.316 µM) of 47.9%. It also gave a viability, T/C (second compound 0.316 µM, first compound 1 µM) of 7.06%, a viability, T/C (second compound 0.316 µM, first compound 3.16 µM) of 3.37% and a viability, T/C (second compound 0.316 µM, first compound 10 µM) of 2.33%. The viability, T/C (second compound 1 µM, first compound 0.0316 µM) was 78.9%, the viability, T/C (second compound 1 µM, first compound 0.1 µM) was 69.5% and the viability, T/C (second compound 1 µM, first compound 0.316 µM) was 46.8%. The viability, T/C (second compound 1 µM, first compound 1 µM) was 6.97%, the viability, T/C (second compound 1 µM, first compound 3.16 µM) was 3.6% and the viability, T/C (second compound 1 µM, first compound 10 µM) was 2.11%. It also gave a viability, T/C (second compound 3.16 µM, first compound 0.0316 µM) of 81.1%, a viability, T/C (second compound 3.16 µM, first compound 0.1 µM) of 70.4% and a viability, T/C (second compound 3.16 µM, first compound 0.316 µM) of 43.1%. It also gave a viability, T/C (second compound 3.16 µM, first compound 1 µM) of 7.77%, a viability, T/C (second compound 3.16 µM, first compound 3.16 µM) of 3.26% and a viability, T/C (second compound 3.16 µM, first compound 10 µM) of 2.52%. It also gave a viability, T/C (second compound 10 µM, first compound 0.0316 µM) of 83.4%, a viability, T/C (second compound 10 µM, first compound 0.1 µM) of 66.9% and a viability, T/C (second compound 10 µM, first compound 0.316 µM) of 36.4%. It also gave a viability, T/C (second compound 10 µM, first compound 1 µM) of 6.28%, a viability, T/C (second compound 10 µM, first compound 3.16 µM) of 3.88% and a viability, T/C (second compound 10 µM, first compound 10 µM) of 2.51%.
